Assay results published in PMC6134108, “Nystatin-like Pseudonocardia polyene B1, a novel disaccharide-containing antifungal heptaene antibiotic” (Scientific Reports, 2018).
Converted amounts (≈) assume the structure as drawn. Read-outs that look alike come from different tables or passages of the source.

Key:
C. albicans SC5314 [1] = test: MIC assay (CLSI M27-A3 microbroth); type: cell-based; conditions: Candida albicans
Protocol: (§1) For the minimum inhibitory concentration (MIC) assay, strains for testing were grown on YPD agar for 24 hours, and subcultured to YPD broth medium. Whole strains were incubated for 18 hours at 35 °C by shaking incubator. Grown organisms were diluted with fresh RPMI 1640 medium to appropriate concentration, 5 × 10^4 CFU/ml. Cultures were inoculated to 96-well plates containing antifungal medium. All compounds were dissolved using Dimethyl Sulfoxide (DMSO) and diluted broth media. Fungal diluted solution and antifungal medium were mixed at 1:1 ratio so total 200 ul mixed medium was made. Whole experiment plates were incubated for 24 hours at 37 °C. […] The MICs were calculated in duplicate using the Clinical and Laboratory Standards Institute M27-A3 microbroth methodology. Hemolysis experiments and the 3-(4,5-dimethylthiazol-2-yl)-5-(3-carboxymethoxyphenyl)-2-(4-sulfophenyl)-2H-tetrazolium (MTS) cell proliferation colorimetric assay were performed following known procedures[12],[27],[29].

C. albicans SL28 = test: MIC assay (CLSI M27-A3 microbroth); type: cell-based; conditions: Candida albicans
Protocol: as §1

C. albicans SL38 = test: MIC assay (CLSI M27-A3 microbroth); type: cell-based; conditions: Candida albicans
Protocol: as §1

[2] = tested on: Candida albicans KCTC7965; test: MIC assay (CLSI M27-A3 microbroth); type: cell-based
Protocol: as §1

horse blood cells = type: cell-based
Protocol: as §1

[3] = Microsomal (metabolic) stability; type: in vitro ADME; conditions: human liver microsomes 1.0 mg/ml; for half-life at 1 µM / microsomal CLint at 1 µM / remaining at 80 min, 1 µM: pH 7.4; for remaining at 80 min, 1 µM: 80-min incubation
Protocol: A metabolic stability experiment was conducted to calculate the rate of disappearance of polyene macrolides following in vitro incubation with human microsomes. Working solutions of polyene macrolides were prepared from a 10 mM stock solution in dimethyl sulfoxide (DMSO) diluted to a final concentration of 1 µM in 0.1 M potassium phosphate buffer (pH 7.4). Each incubation mixture included 1 mg/mL human microsomal protein (BD Gentest^TM, Franklin Lakes, NJ, USA) and 1 mM NADPH. The reactions were terminated at 0, 15, 45, and 80 min. The reaction mixtures were vigorously vortexed and then analyzed using the API2000 LC-MS/MS) system (Applied Biosystems, USA) using an Xterra MS C18 (3.5-µm, 2.1 × 50 mm, Waters).

in vivo [4] = conditions: mouse, 1 mg/kg
Source text: Supplement 41598_2018_31801_MOESM1_ESM.docx, table 4: Table S4.

[5] = Single intravenous dose acute toxicity; type: in vivo, mice; conditions: both sexes, ICR, mouse, in vivo; mice, single intravenous administration; read-out: LD50, median lethal dose (dose causing 50% mortality)
Protocol: All in vivo mouse toxicity studies were conducted according to Testing Guidelines for Safety Evaluation of Drugs[32] and the Organisation for Economic Co-operation and Development (OECD) Guideline[33]. Male and female ICR mice were used 7 weeks old for the toxicity test. […] The single doses were 1, 2.5, and 5 mg per kg body weight.

[6] = 7-day repeated intravenous dose toxicity; type: in vivo, mice; conditions: both sexes, ICR, mouse, in vivo; mice, 7-day repeated intravenous doses; read-out: MTD, maximal tolerated dose
Protocol: All in vivo mouse toxicity studies were conducted according to Testing Guidelines for Safety Evaluation of Drugs[32] and the Organisation for Economic Co-operation and Development (OECD) Guideline[33]. Male and female ICR mice were used 7 weeks old for the toxicity test. […]

[7] = rats, oral administration
[8] = parameters: method as in PMID 22382166; conditions: cited from earlier work
[9] = parameters: method as in PMID 22382166; conditions: cited from earlier work; remark: listed apart in the source
in vivo [10] = conditions: male, SD, rat, iv, 1 mg/kg
[11] = cited from earlier work
C. albicans SC5314 [12] = test: In vivo efficacy, candidiasis-infected mouse model (survival); parameters: species or system Candida albicans; conditions: ICR mice infected with C. albicans SC5314; low dose 0.1 mg/kg
Source text: The systemic infection animal model was established using 4-week-old male ICR mice. Five C. albicans strains, consisting of two standard (C. albicans SC5314 and KCTC7965) and three clinical (C. albicans SL23, SL28, and SL38) strains were intravenously injected into the lateral tail vein of the various mouse groups. The mice were daily monitored for signs and mortality, and then they were euthanized. Subsequently, the target pathogenic C. albicans strain and optimal concentration for systemic infection for C. albicans were determined. A clinical isolate of C. albicans (SC5314) was grown and subcultured at 35 °C on Sabouraud dextrose agar (SDA) before infection. Candidiasis was induced by injecting 5 × 10^5 CFU/mouse via the tail vein of six 4-week-old ICR male mice. Each animal in the treatment group was administered a subcutaneous injection of reconstituted polyene macrolides 4 h after the infection. The drug efficacy was investigated by determining the survival rates of the mice.

Structure (SMILES): CC(=O)NC1C(OC2C(C)OC(OC3C=CC=CC=CC=CCCC=CC=CC(C)C(O)C(C)C(C)OC(=O)CC(O)CC(O)CC(O)CCC(O)C(O)CC4(O)CC(O)C(C(=O)O)C(C3)O4)C(O)C2N)OC(CO)C(O)C1O (stereo not drawn) [NPP A1, nystatin-like Pseudonocardia polyene (NPP) A1]
- MIC (C. albicans SC5314 [1]; SC5314, read-out: Antifungal activity (MIC)): 16 µg/mL (≈ 14.2 µM)
- MIC (C. albicans SL28; SL28, read-out: Antifungal activity (MIC)): 16 µg/mL (≈ 14.2 µM)
- MIC (C. albicans SL38; SL38, read-out: Antifungal activity (MIC)): 16 µg/mL (≈ 14.2 µM)
- MIC ([2]; Candida albicans, KCTC7965, read-out: Antifungal activity (MIC)): 16 µg/mL (≈ 14.2 µM)
- Hemolytic activity (MHC, minimum hemolytic concentration) (horse blood cells; 90% hemolysis against horse blood cells, ± percentage standard deviation): 459.35 ± 32.5 µg/mL
- Clearance class [3]: Low
- half-life at 1 µM [3]: > 80 min
- microsomal CLint at 1 µM [3]: < 8600 µL/min/mg
- remaining at 80 min, 1 µM [3]: 60.9%
- AUC(0-inf) (in vivo [4]; read-out: AUC0-inf): 12700 ng·h/mL
- AUC(0-t) (in vivo [4]; read-out: AUC0-t): 12400 ng·h/mL
- clearance (in vivo [4]; read-out: CL (converted)): 1.67 mL/min/kg
- MRT inf (in vivo [4]; read-out: MRTinf): 66 min
- Vd (in vivo [4]; read-out: Vss): 0.1 L/kg
- half-life (in vivo [4]; read-out: t1/2 (converted)): 60 min
- LD50 at 7 days [5]: 16.1 mg/kg
- MTD at 7 days [6]: 5 to 10 mg/kg
- detection in the plasma following oral administration [7]: not detected
- water-solubility, fold higher than nystatin A1 [8]: 300 fold
- antifungal activity, lower than nystatin A1 [9]: approximately 50%
- AUC(0-inf) (in vivo [10]; plasma): 4470 ng·h/mL
- AUC(0-t) (in vivo [10]; plasma): 4390 ng·h/mL
- MRT inf (in vivo [10]; plasma): 42 min
- Vd (in vivo [10]; plasma): 0.1 L/kg
- clearance (in vivo [10]; plasma): 3.33 mL/min/kg
- half-life (in vivo [10]; plasma): 36 min
- hemolytic activity, fold reduced versus nystatin A1 [11]: 10 fold

Structure (SMILES): C[C@@H]1[C@H](O)[C@@H](C)/C=C/C=C/CC/C=C/C=C/C=C/C=C/[C@H](O[C@@H]2O[C@H](C)[C@@H](O)[C@H](N)[C@@H]2O)C[C@@H]2O[C@](O)(C[C@@H](O)[C@H](O)CC[C@@H](O)C[C@@H](O)C[C@@H](O)CC(=O)O[C@H]1C)C[C@H](O)[C@H]2C(=O)O [Nystatin A1, nystatin A1]
- MIC (C. albicans SC5314 [1]; C. albicans SC5314, no visible growth, read-out: Antifungal activity (MIC)): 4 µg/mL (≈ 4.32 µM)
- MIC (C. albicans SL28; C. albicans SL28, no visible growth, read-out: Antifungal activity (MIC)): 4 µg/mL (≈ 4.32 µM)
- MIC (C. albicans SL38; C. albicans SL38, no visible growth, read-out: Antifungal activity (MIC)): 4 µg/mL (≈ 4.32 µM)
- MIC ([2]; Candida albicans KCTC7965, no visible growth, read-out: Antifungal activity (MIC)): 4 µg/mL (≈ 4.32 µM)
- Hemolytic activity (MHC, minimum hemolytic concentration) (horse blood cells; horse): 66.17 ± 0.90 µg/mL
- Clearance class [3]: Low
- half-life at 1 µM [3]: > 80 min
- microsomal CLint at 1 µM [3]: < 8600 µL/min/mg
- remaining at 80 min, 1 µM [3]: 115%
- AUC(0-inf) (in vivo [4]): 7150 ng·h/mL
- AUC(0-t) (in vivo [4]): 7120 ng·h/mL
- MRT inf (in vivo [4]): 54 min
- Vd (in vivo [4]): 0.1 L/kg
- clearance (in vivo [4]): 1.67 mL/min/kg
- half-life (in vivo [4]): 36 min
- LD50 at 7 days [5]: 5.37 mg/kg
- MTD at 7 days [6]: 2 to 4 mg/kg
- survival rate (C. albicans SC5314 [12]): gradually decreased
- MRT inf (in vivo [10]; in vivo): 48 min
- AUC(0-inf) (in vivo [10]; plasma): 5300 ng·h/mL
- AUC(0-t) (in vivo [10]; plasma): 5120 ng·h/mL
- Vd (in vivo [10]; plasma): 0.2 L/kg
- clearance (in vivo [10]; plasma): 3.33 mL/min/kg
- half-life (in vivo [10]; plasma): 36 min
